Source: PubChem BioAssay AID328 (DTP/NCI, 2004)
“And” between values parts separate entries of the source, which are not always exact repeats. Identical values can stand only once. Toxic doses and inconclusive results are not listed.

Test system: BDF1 mice, P388 leukemia ip, median survival T/C
Assay: NCI In Vivo Anticancer Drug Screen. Data for tumor model P388 Leukemia (intraperitoneal) in B6D2F1 (BDF1) mice
Settings: endpoint: median survival time, higher = longer survival
Procedure, shortened: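 In tumour-bearing mice, survival after compound treatment is set against the vehicle group and given as a quotient.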

[1] = dose: 12.5 mg/kg/injection, schedule: Q01DX009 (ip), vehicle: saline
[2] = dose: 25.0 mg/kg/injection, schedule: Q01DX009 (ip), vehicle: saline
[3] = dose: 100.0 mg/kg/injection, schedule: Q04DX003 (ip), vehicle: Klucel (hydroxypropylcellulose) (HPC)
[4] = dose: 200.0 mg/kg/injection, schedule: Q04DX003 (ip), vehicle: Klucel (hydroxypropylcellulose) (HPC)
[5] = dose: 100.0 mg/kg/injection, schedule: Q01DX009 (ip), vehicle: saline with Tween-80
[6] = dose: 100.0 mg/kg/injection, schedule: Q01DX009 (ip), vehicle: Klucel (hydroxypropylcellulose) (HPC)
[7] = dose: 100.0 mg/kg/injection, schedule: Q04DX003 (ip), vehicle: saline with Tween-80
[8] = dose: 200.0 mg/kg/injection, schedule: Q04DX003 (ip), vehicle: saline with Tween-80

`O=C(Nc1ccc(Cl)cc1)P(=O)(O)c1ccccc1` was tested, and the T/C (dose: 6.25 mg/kg/injection, schedule: Q01DX009 (ip), vehicle: saline) was 98 % of control, the T/C [1] was 104 % of control and the T/C [2] was 98 % of control. The T/C (dose: 50.0 mg/kg/injection, schedule: Q01DX009 (ip), vehicle: saline) was 99 % of control and the T/C (dose: 100.0 mg/kg/injection, schedule: Q01DX009 (ip), vehicle: saline) was 100 % of control and 102 % of control.
In the case of `O=C(O)CCCCCNC(=O)c1ccccc1`, the T/C (dose: 50.0 mg/kg/injection, schedule: Q04DX003 (ip), vehicle: Klucel (hydroxypropylcellulose) (HPC)) is reported as 118 % of control, the T/C (dose: 100.0 mg/kg/injection, schedule: Q01DX001 (ip), vehicle: Klucel (hydroxypropylcellulose) (HPC)) is reported as 100 % of control and the T/C [3] is reported as 100 % of control. For the same compound, the T/C (dose: 200.0 mg/kg/injection, schedule: Q01DX001 (ip), vehicle: Klucel (hydroxypropylcellulose) (HPC)) was 104 % of control, the T/C [4] was 100 % of control and the T/C (dose: 400.0 mg/kg/injection, schedule: Q01DX001 (ip), vehicle: Klucel (hydroxypropylcellulose) (HPC)) was 100 % of control.
With `CC(C)=CC(=O)OCC[N+](C)(C)C` the T/C [1] was 97 % of control and the T/C [2] was 90 % of control.
In the case of `FC(F)(Cl)c1nc2nc(Cl)c(Cl)nc2[nH]1`, the T/C (dose: 266.0 mg/kg/injection, schedule: Q04DX003 (ip), vehicle: other) is reported as 100 % of control, the T/C (dose: 400.0 mg/kg/injection, schedule: Q04DX003 (ip), vehicle: other) is reported as 108 % of control and the T/C (dose: 600.0 mg/kg/injection, schedule: Q04DX003 (ip), vehicle: other) is reported as 108 % of control.
`Cc1cc(NC(=O)Nc2cccc(C3=NCCN3)c2)ccc1NC(=O)Nc1cccc(C2=NCCN2)c1` was tested, and the T/C [5] was 118 % of control and the T/C (dose: 400.0 mg/kg/injection, schedule: Q01DX009 (ip), vehicle: saline with Tween-80) was 190 % of control.
For `NS(=O)(=O)c1ccc(NC(=O)c2ccccc2C(=O)O)cc1`, the T/C [6] was 95 % of control, the T/C (dose: 200.0 mg/kg/injection, schedule: Q01DX009 (ip), vehicle: Klucel (hydroxypropylcellulose) (HPC)) was 100 % of control and the T/C (dose: 400.0 mg/kg/injection, schedule: Q01DX009 (ip), vehicle: Klucel (hydroxypropylcellulose) (HPC)) was 105 % of control.
For `CSc1nnnn1-c1ccccc1`, the T/C (dose: 16.5 mg/kg/injection, schedule: Q01DX009 (ip), vehicle: Klucel (hydroxypropylcellulose) (HPC)) was 104 % of control, the T/C (dose: 25.0 mg/kg/injection, schedule: Q01DX009 (ip), vehicle: Klucel (hydroxypropylcellulose) (HPC)) was 95 % of control and the T/C (dose: 37.5 mg/kg/injection, schedule: Q01DX009 (ip), vehicle: Klucel (hydroxypropylcellulose) (HPC)) was 104 % of control. The T/C (dose: 50.0 mg/kg/injection, schedule: Q01DX009 (ip), vehicle: Klucel (hydroxypropylcellulose) (HPC)) was 100 % of control and the T/C [6] was 100 % of control.
With `COc1cc2cc(c1Cl)N(C)C(=O)/C=C/C1(C)OC1C(C)C1CC(O)(NC(=O)O1)C(OC)C=C/C=C(\C)C2` (stereo not given) the T/C (dose: 0.2 micrograms/kg/injection, schedule: Q01DX009 (ip), vehicle: saline + alcohol) was 90 % of control, the T/C (dose: 0.4 micrograms/kg/injection, schedule: Q01DX009 (ip), vehicle: saline + alcohol) was 90 % of control and the T/C (dose: 0.8 micrograms/kg/injection, schedule: Q01DX009 (ip), vehicle: saline + alcohol) was 90 % of control. The T/C (dose: 1.6 micrograms/kg/injection, schedule: Q01DX009 (ip), vehicle: saline + alcohol) was 90 % of control, the T/C (dose: 3.1 micrograms/kg/injection, schedule: Q01DX009 (ip), vehicle: saline + alcohol) was 90 % of control and the T/C (dose: 100.0 micrograms/kg/injection, schedule: Q01DX009 (ip), vehicle: saline + alcohol) was 110 % of control.
In the case of `Sc1ccc(Nc2c3ccccc3nc3ccccc23)cc1`, the T/C (dose: 50.0 mg/kg/injection, schedule: Q01DX009 (ip), vehicle: saline with Tween-80) is reported as 102 % of control and 108 % of control and the T/C [5] is reported as 100 % of control and 118 % of control.
In the case of `O=C(NCCCl)N(CCCl)C(=O)Oc1c(Cl)cc(Cl)cc1Cl`, the T/C (dose: 50.0 mg/kg/injection, schedule: Q01DX005 (ip), vehicle: saline with Tween-80) is reported as 100 % of control, the T/C (dose: 100.0 mg/kg/injection, schedule: Q01DX005 (ip), vehicle: saline with Tween-80) is reported as 112 % of control and the T/C (dose: 200.0 mg/kg/injection, schedule: Q01DX005 (ip), vehicle: saline with Tween-80) is reported as 100 % of control.
For `CC(C)(Br)C(=O)c1ccc(-c2ccccc2)cc1`, the T/C (dose: 12.5 mg/kg/injection, schedule: Q01DX009 (ip), vehicle: water) was 109 % of control, the T/C (dose: 25.0 mg/kg/injection, schedule: Q01DX009 (ip), vehicle: water) was 96 % of control and the T/C (dose: 25.0 mg/kg/injection, schedule: Q04DX003 (ip), vehicle: water) was 107 % of control. The T/C (dose: 50.0 mg/kg/injection, schedule: Q01DX009 (ip), vehicle: water) was 117 % of control, the T/C (dose: 50.0 mg/kg/injection, schedule: Q04DX003 (ip), vehicle: water) was 107 % of control and the T/C (dose: 100.0 mg/kg/injection, schedule: Q01DX009 (ip), vehicle: water) was 102 % of control. For the same compound, the T/C [3] was 90 % of control, the T/C (dose: 100.0 mg/kg/injection, schedule: Q04DX003 (ip), vehicle: water) was 107 % of control and the T/C (dose: 200.0 mg/kg/injection, schedule: Q01DX009 (ip), vehicle: water) was 109 % of control. For the same compound, the T/C [4] was 100 % of control, the T/C (dose: 200.0 mg/kg/injection, schedule: Q04DX003 (ip), vehicle: water) was 107 % of control and the T/C (dose: 400.0 mg/kg/injection, schedule: Q01DX009 (ip), vehicle: water) was 117 % of control. For the same compound, the T/C (dose: 400.0 mg/kg/injection, schedule: Q04DX003 (ip), vehicle: Klucel (hydroxypropylcellulose) (HPC)) was 100 % of control and the T/C (dose: 400.0 mg/kg/injection, schedule: Q04DX003 (ip), vehicle: water) was 110 % of control.
With `CCCN(Cc1ccc(CN(CCC)C(=O)C(Cl)Cl)cc1)C(=O)C(Cl)Cl` the T/C [7] was 93 % of control, the T/C [8] was 95 % of control and the T/C (dose: 400.0 mg/kg/injection, schedule: Q04DX003 (ip), vehicle: saline with Tween-80) was 88 % of control.
With `CCNC(=S)N/N=C\C=N/NC(=S)NCC` the T/C (dose: 75.0 mg/kg/injection, schedule: Q01DX009 (ip), vehicle: saline with Tween-80) was 90 % of control and the T/C (dose: 300.0 mg/kg/injection, schedule: Q01DX009 (ip), vehicle: saline with Tween-80) was 91 % of control.
For `COc1ccc(CC2C(=O)NC(C)C(=O)N(C)C3C(=O)N(C)C(Cc4ccc(O)c(c4)Oc4ccc(cc4)C3O)C(=O)NC(C)C(=O)NC(C)C(=O)N2C)cc1` (stereo not given) (tested in a mixture with another compound), the T/C (dose: 0.5 mg/kg/injection, schedule: Q01DX009 (ip), vehicle: alcohol) was 179 % of control, the T/C (dose: 0.5 mg/kg/injection, schedule: Q01DX009 (ip), vehicle: carboxymethylcellulose (CMC)) was 207 % of control and the T/C (dose: 1.0 mg/kg/injection, schedule: Q01DX009 (ip), vehicle: alcohol) was 158 % of control. The T/C (dose: 1.0 mg/kg/injection, schedule: Q01DX009 (ip), vehicle: carboxymethylcellulose (CMC)) was 182 % of control, the T/C (dose: 2.0 mg/kg/injection, schedule: Q01DX009 (ip), vehicle: alcohol) was 208 % of control and the T/C (dose: 2.0 mg/kg/injection, schedule: Q01DX009 (ip), vehicle: carboxymethylcellulose (CMC)) was 207 % of control.
In the case of `O=S(=O)(O)c1ccc(-c2ccc(S(=O)(=O)O)cc2)cc1` (tested in a mixture with another compound), the T/C (dose: 21.0 mg/kg/injection, schedule: Q04DX003 (ip), vehicle: saline) is reported as 200 % of control, the T/C (dose: 33.0 mg/kg/injection, schedule: Q04DX003 (ip), vehicle: saline) is reported as 270 % of control and the T/C (dose: 50.0 mg/kg/injection, schedule: Q04DX003 (ip), vehicle: saline) is reported as 300 % of control. For the same compound, the T/C (dose: 110.0 mg/kg/injection, schedule: Q04DX003 (ip), vehicle: saline) was 300 % of control.
`O=C(CC(O)(C(F)(F)Cl)C(F)(F)Cl)c1cccs1` was tested, and the T/C (dose: 100.0 mg/kg/injection, schedule: Q01DX001 (ip), vehicle: saline with Tween-80) was 95 % of control, the T/C (dose: 200.0 mg/kg/injection, schedule: Q01DX001 (ip), vehicle: saline with Tween-80) was 100 % of control and the T/C (dose: 400.0 mg/kg/injection, schedule: Q01DX001 (ip), vehicle: saline with Tween-80) was 100 % of control.
For `C[N+](C)(C)/N=C1\CCc2ccccc21`, the T/C (dose: 50.0 mg/kg/injection, schedule: Q04DX003 (ip), vehicle: saline with Tween-80) was 95 % of control, the T/C [7] was 95 % of control and the T/C [8] was 95 % of control.
`Cc1c2oc3c(C)c([N+](=O)[O-])cc(C(=O)NC4C(=O)NC(C(C)C)C(=O)N5CCCC5C(=O)N(C)CC(=O)N(C)C(C(C)C)C(=O)OC4C)c3nc-2c(C(=O)NC2C(=O)NC(C(C)C)C(=O)N3CCCC3C(=O)N(C)CC(=O)N(C)C(C(C)C)C(=O)OC2C)c(N)c1=O` (stereo not given) was tested, and the T/C (dose: 150.0 micrograms/kg/injection, schedule: Q01DX009 (ip), vehicle: saline + alcohol) was 153 % of control, the T/C (dose: 450.0 micrograms/kg/injection, schedule: Q04DX003 (ip), vehicle: saline + alcohol) was 110 % of control and the T/C (dose: 600.0 micrograms/kg/injection, schedule: Q04DX003 (ip), vehicle: saline + alcohol) was 108 % of control.
